Results published in US20220347144A1, “COMPOSITIONS AND METHODS FOR PREVENTING AND/OR REDUCING WEIGHT GAIN AND ASSOCIATED CONDITIONS” (University of Virginia Patent Foundation, priority 2019, published 2022).

Key:
C57Bl/6J mice [1] = assay: Insulin Tolerance Test (ITT); assay type: in vivo, mouse
Experimental: Insulin Tolerance Test (ITT) and Glucose Tolerance Test (GTT) and analysis of blood glucose and plasma insulin. ITT and GTT were performed as described in Lansey et al., 2012. Briefly, for ITT, random-fed mice were given an intraperitoneal injection (IP) of insulin (0.75 U/kg in 0.9% NaCl). Blood glucose levels were determined by a glucometer (Contour Next EZ Blood Glucose Monitoring System, Bayer, Leverkusen, Germany) at the indicated time points after injection. For GTT, mice were fasted for 16 hours prior to testing. D-Glucose, prepared the day before, was administered via an IP injection (1 g/kg), and blood glucose levels were determined by a glucometer at the indicated time points after injection. Plasma insulin levels were determined using a STELLUX® brand Chemi Rodent Insulin ELISA kit (Cat. No. 80-INSMR-CHO1; APLCO, Salem, N.H., United States of America) or an Ultrasensitive Rat/Mouse Insulin ELISA kit, Low Range Assay (Cat. No. 90060; Crystal Chem, Downers Grove, Ill., United States of America). The luminescence assay was conducted using a VICTOR2 Plate Reader (Perkin Elmer, Waltham, Mass., United States of America).

C57Bl/6J mice [2] = assay: Average food consumption over 12 weeks; assay type: in vivo, mouse
Experimental: Animals. Animal experiments were approved by the Animal Care and Use Committee of the University of Virginia (Charlottesville, Va., United States of America). C57Bl/6J mice were obtained from Jackson Laboratories (Bar Harbor, Me., United States of America). Mice were group housed in standard cages with up to five mice per cage with a 12 hour dark/light cycle. All mice were weighed once per week. Weekly food consumption was measured, with the amount consumed per cage averaged amongst the mice in the cage. Body composition was determined by use of an ECHOMRI™-100H Body Composition Analyzer (EchoMRI LLC, Houston, Tex., United States of America).

Substance: (Z)-tetracos-15-enoic acid [NA]
- response of blood glucose to insulin injection (C57Bl/6J mice [1]; HFD+NA, 11 weeks on diets): responded similarly to mice on control diets
- response of blood glucose to insulin injection (C57Bl/6J mice [1]; HFD+NA, 11 weeks on diets, listed as nervonic acid): responded similarly to mice on the control diet
- response of blood glucose to insulin injection (C57Bl/6J mice [1]; control diet containing NA): responded similar to mice on the control diet alone
- response of blood glucose to insulin injection (C57Bl/6J mice [1]; control diet containing NA, listed as nervonic acid): responded similar to the control diet
- average food consumption (C57Bl/6J mice [2]; HFD+NA versus HFD, 12 weeks): similar
- food consumption (C57Bl/6J mice [2]; control+NA versus control): not significantly different
